In brackets after ≈: the same amount, converted by molar mass.
Experiments:
Assay type in all cases: functional
Candida albicans = experiment: Antifungal activity against Candida albicans MTCC 227 after 72 hr; details: MTCC 227, 72 h
Pseudomonas aeruginosa = experiment: Antibacterial activity against Pseudomonas aeruginosa MTCC 1688 after 24 to 48 hr by serial dilution method
Escherichia coli = experiment: Antibacterial activity against Escherichia coli MTCC 443 after 24 to 48 hr by serial dilution method
Aspergillus niger = experiment: Antifungal activity against Aspergillus niger MTCC 282 after 72 hr; details: MTCC 282, 72 h
Staphylococcus aureus = experiment: Antibacterial activity against Staphylococcus aureus MTCC 96 after 24 to 48 hr by serial dilution method
Streptococcus pyogenes = experiment: Antibacterial activity against Streptococcus pyogenes MTCC 442 after 24 to 48 hr by serial dilution method
Aspergillus clavatus = experiment: Antifungal activity against Aspergillus clavatus MTCC 1323 after 72 hr; details: MTCC 1323, 72 h

Row | MIC99 (Candida albicans) | MIC99 (Pseudomonas aeruginosa) | MIC99 (Escherichia coli) | MIC99 (Aspergillus niger) | MIC99 (Staphylococcus aureus) | MIC99 (Streptococcus pyogenes) | MIC99 (Aspergillus clavatus) | SMILES
1 | 500 µg/mL (≈ 922 µM) | 500 µg/mL (≈ 922 µM) | 500 µg/mL (≈ 922 µM) | 1000 µg/mL (≈ 1840 µM) | 200 µg/mL (≈ 369 µM) | 200 µg/mL (≈ 369 µM) | 1000 µg/mL (≈ 1840 µM) | C/C(=N\n1c(/N=C/c2cccc([N+](=O)[O-])c2)c(C#N)c(-c2ccccc2O)c(C#N)c1=O)c1nc2ccccc2[nH]1
2 | 500 µg/mL (≈ 922 µM) | 250 µg/mL (≈ 461 µM) | 250 µg/mL (≈ 461 µM) | 1000 µg/mL (≈ 1840 µM) | 250 µg/mL (≈ 461 µM) | 250 µg/mL (≈ 461 µM) | 1000 µg/mL (≈ 1840 µM) | C/C(=N\n1c(/N=C/c2ccc([N+](=O)[O-])cc2)c(C#N)c(-c2ccccc2O)c(C#N)c1=O)c1nc2ccccc2[nH]1
3 | 1000 µg/mL (≈ 1880 µM) | 25 µg/mL (≈ 47 µM) | 250 µg/mL (≈ 470 µM) | 100 µg/mL (≈ 188 µM) | 100 µg/mL (≈ 188 µM) | 250 µg/mL (≈ 470 µM) | 1000 µg/mL (≈ 1880 µM) | C/C(=N\n1c(/N=C/c2ccccc2Cl)c(C#N)c(-c2ccccc2O)c(C#N)c1=O)c1nc2ccccc2[nH]1
4 | 500 µg/mL (≈ 940 µM) | 250 µg/mL (≈ 470 µM) | 100 µg/mL (≈ 188 µM) | 1000 µg/mL (≈ 1880 µM) | 100 µg/mL (≈ 188 µM) | 250 µg/mL (≈ 470 µM) | 1000 µg/mL (≈ 1880 µM) | C/C(=N\n1c(/N=C/c2ccc(Cl)cc2)c(C#N)c(-c2ccccc2O)c(C#N)c1=O)c1nc2ccccc2[nH]1
5 | 200 µg/mL (≈ 370 µM) | 100 µg/mL (≈ 185 µM) | 62.5 µg/mL (≈ 116 µM) | 500 µg/mL (≈ 925 µM) | 100 µg/mL (≈ 185 µM) | 100 µg/mL (≈ 185 µM) | 500 µg/mL (≈ 925 µM) | C/C(=N\n1c(/N=C/c2ccc(N(C)C)cc2)c(C#N)c(-c2ccccc2O)c(C#N)c1=O)c1nc2ccccc2[nH]1
6 | 1000 µg/mL (≈ 1840 µM) | 100 µg/mL (≈ 184 µM) | 200 µg/mL (≈ 368 µM) | 1000 µg/mL (≈ 1840 µM) | 250 µg/mL (≈ 460 µM) | 250 µg/mL (≈ 460 µM) | 1000 µg/mL (≈ 1840 µM) | COc1cc(/C=N/c2c(C#N)c(-c3ccccc3O)c(C#N)c(=O)n2/N=C(\C)c2nc3ccccc3[nH]2)ccc1O
7 | 1000 µg/mL (≈ 1700 µM) | 250 µg/mL (≈ 425 µM) | 200 µg/mL (≈ 340 µM) | 1000 µg/mL (≈ 1700 µM) | 250 µg/mL (≈ 425 µM) | 500 µg/mL (≈ 851 µM) | 100 µg/mL (≈ 170 µM) | COc1cc(/C=N/c2c(C#N)c(-c3ccccc3O)c(C#N)c(=O)n2/N=C(\C)c2nc3ccccc3[nH]2)cc(OC)c1OC
8 | 200 µg/mL (≈ 402 µM) | 50 µg/mL (≈ 100 µM) | 100 µg/mL (≈ 201 µM) | 100 µg/mL (≈ 201 µM) | 250 µg/mL (≈ 502 µM) | 100 µg/mL (≈ 201 µM) | 200 µg/mL (≈ 402 µM) | C/C(=N\n1c(/N=C/c2ccccc2)c(C#N)c(-c2ccccc2O)c(C#N)c1=O)c1nc2ccccc2[nH]1
9 | 500 µg/mL (≈ 974 µM) | 150 µg/mL (≈ 292 µM) | 150 µg/mL (≈ 292 µM) | 1000 µg/mL (≈ 1950 µM) | 200 µg/mL (≈ 389 µM) | 200 µg/mL (≈ 389 µM) | 1000 µg/mL (≈ 1950 µM) | C/C(=N\n1c(/N=C/c2ccccc2O)c(C#N)c(-c2ccccc2O)c(C#N)c1=O)c1nc2ccccc2[nH]1
10 | 500 µg/mL (≈ 974 µM) | 250 µg/mL (≈ 487 µM) | 250 µg/mL (≈ 487 µM) | 1000 µg/mL (≈ 1950 µM) | 200 µg/mL (≈ 389 µM) | 500 µg/mL (≈ 974 µM) | 1000 µg/mL (≈ 1950 µM) | C/C(=N\n1c(/N=C/c2cccc(O)c2)c(C#N)c(-c2ccccc2O)c(C#N)c1=O)c1nc2ccccc2[nH]1
11 | 500 µg/mL (≈ 974 µM) | 150 µg/mL (≈ 292 µM) | 150 µg/mL (≈ 292 µM) | 1000 µg/mL (≈ 1950 µM) | 250 µg/mL (≈ 487 µM) | 50 µg/mL (≈ 97.4 µM) | 100 µg/mL (≈ 195 µM) | C/C(=N\n1c(/N=C/c2ccc(O)cc2)c(C#N)c(-c2ccccc2O)c(C#N)c1=O)c1nc2ccccc2[nH]1
12 |  | 100 µg/mL (≈ 286 µM) | 100 µg/mL (≈ 286 µM) |  | 250 µg/mL (≈ 715 µM) | 100 µg/mL (≈ 286 µM) |  | CC1(C)S[C@@H]2[C@H](NC(=O)[C@H](N)c3ccccc3)C(=O)N2[C@H]1C(=O)O [AMPICILLIN]
13 | 500 µg/mL (≈ 1420 µM) |  |  | 100 µg/mL (≈ 283 µM) |  |  | 100 µg/mL (≈ 283 µM) | COC1=CC(=O)C[C@@H](C)[C@]12Oc1c(Cl)c(OC)cc(OC)c1C2=O [GRISEOFULVIN]
